Here are results for one molecule from patent US11215608B2, “Methods of determining cellular chemosensitivity” (Dana-Farber Cancer Institute, Inc., priority 2006, dated 2022).

The test system of test [1] is BAX. Put plainly: BAX oligomerization / activation in mitochondria of IL-3 starved FL5.12-BCL-2 cells. It counts as biochemical, murine. The method, then:
Mitochondria were isolated from wt FL5.12 cells and FL5.12-BCL-2 cells in the presence of IL-3, and from FL5.12-BCL-2 cells following 24 hours of IL-3 deprivation. […] Mitochondrial pellets were subjected to chemical crosslinking as previously described (Letai et al., 2002).
This model predicts that BCL-2 acts upstream of BAX activation by intercepting activator BH3 molecules. To test this prediction, in FIG. 6E, immunoprecipitation was performed with an antibody that recognizes only the activated form of BAX which exposes an N-terminus epitope (Desagher ct al., 1999; Hsu and You le, 1997). wt or BCL-2 expressing FL5.12 cells were exposed to IL-3 withdrawal as indicated.

In test [2] the target is T1, BCL-2:BIM complex (Homo sapiens, UniProt P10415).
T1 construct: A BCL-2 antibody was used to immunoprecipitate BCL-2 from CLL lysates from four independent patient samples; endogenous in cells; host or cells: freshly isolated primary human CLL cells
T1 sequence (P10415 whole entry, one chain of several): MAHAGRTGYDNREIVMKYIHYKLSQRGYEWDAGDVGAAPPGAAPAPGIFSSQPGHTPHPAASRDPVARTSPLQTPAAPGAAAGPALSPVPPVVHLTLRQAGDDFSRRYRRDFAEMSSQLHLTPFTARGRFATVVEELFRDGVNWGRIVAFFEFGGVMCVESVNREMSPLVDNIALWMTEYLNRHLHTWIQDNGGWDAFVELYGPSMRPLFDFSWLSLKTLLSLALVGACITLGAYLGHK
Briefly: BCL-2 immunoprecipitation from treated primary CLL cells. In kind it is cell-based. The settings on record: 100 nM, 24 hours.

The subject of test [3] is CLL mitochondria. Put plainly: Cytochrome c release from CLL mitochondria. In kind it is biochemical, human. The settings on record: peptides or compounds 100 μM. The method, then: Alternatively, mitochondria were purified from freshly isolated CLL cells and cell lines by mechanical disruption followed by differential centrifugation, as previously described (Letai et al., 2002). Mitochondrial suspensions were made at 0.5 mg protein/ml, except for the case of ABT-737 and negative control enantiomer treatments, where 0.1 mg/ml was used. Release of cytochrome c was determined by a comparison of cytochrome c in the pellet and supernatant quantitated by ELISA (R&D systems).
CLL mitochondria were incubated with BH3 peptides as well as ABT-737 and negative control enantiomer (FIG. 14). […] This pattern is diagnostic of mitochondrial BCL-2 dependence. […] Since the BH3 peptides in the sensitizer panel lack the ability to directly activate BAX and BAK, these experiments also implicated the presence of an activator molecule constitutively sequestered by BCL-2 in CLL.

The target of test [4] is T1, BCL-2:BIM complex. Briefly: Displacement of BIM from immunoprecipitated BCL-2, detergent-free. In kind it is binding. To be noted: 1 μM, detergent-free conditions.
The test system of test [5] is CLL cells. Briefly: Annexin-V death assay of freshly isolated primary CLL cells. It counts as cell-based, human. To be noted: five samples.
In test [6] the target is BCL-2 (Homo sapiens, UniProt P10415). The settings on record: cited from earlier work.
BCL-2, sequence (P10415 whole entry, species assumed): as the sequence (P10415 whole entry, one chain of several) above
Test [7] addresses T2, BCL-w (Homo sapiens, UniProt Q92843).
T2 sequence (Q92843 1-193): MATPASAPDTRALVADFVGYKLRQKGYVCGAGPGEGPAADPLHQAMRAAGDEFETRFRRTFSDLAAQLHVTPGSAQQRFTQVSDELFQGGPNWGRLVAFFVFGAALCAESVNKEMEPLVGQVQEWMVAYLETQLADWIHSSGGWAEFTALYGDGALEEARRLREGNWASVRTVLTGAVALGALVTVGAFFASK
The settings on record: cited from earlier work.

Test [8] deals with BCL-XL (Homo sapiens, UniProt Q07817). To be noted: cited from earlier work.
BCL-XL, sequence (Q07817 whole entry, species assumed): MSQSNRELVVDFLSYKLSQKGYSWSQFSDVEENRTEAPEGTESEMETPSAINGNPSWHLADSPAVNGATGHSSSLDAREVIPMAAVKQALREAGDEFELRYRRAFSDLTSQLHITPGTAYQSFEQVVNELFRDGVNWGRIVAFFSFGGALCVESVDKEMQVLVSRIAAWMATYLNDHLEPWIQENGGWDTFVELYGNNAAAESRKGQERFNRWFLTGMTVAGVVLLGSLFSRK
For test [9], the system named is BAX. Put plainly: BAX oligomerization in CLL cells. It counts as cell-based, human. To be noted: 4 hours. The method, then:
10^7 freshly isolated CLL cells were incubated with DMSO, 10 nM, 100 nM, or 1 μM ABT-737 or negative control enantiomer for 4 hours, % dead assessed by Annexin-V staining and FACS analysis, then treated with 0.3% saponin and 10 μM BMH for 30 minutes on ice. Cells were then lysed, loaded onto a 10% BISTris polyacrlyamide gel, transferred, and immunoblotted for BAX.

The subject of test [10] is 2B4 cells. Briefly: 2B4 cell viability with dexamethasone by Annexin V. In kind it is cell-based, murine. The settings on record: 24 hours. From the text:
(§1) Cells were stained with fluorescent conjugates of Annexin-V (BioVision) and propidium iodide (PI) and analyzed on a FACSCalibur machine (Becton-Dickinson).

The subject of test [11] is SU-DHL4, SU-DHL6, SU-DHL8, SU-DHL 10. Briefly: Lymphoma cell line sensitivity to agents. To be noted: four lymphoma cell lines compared. It counts as cell-based. The method, then:
Only cells that are dependent on BCL-2 for survival are predicted to respond to BCL-2 antagonists like ABT-737. […] To test this, cells were treated with vincristine.

In test [12] the test system is CLL cells. Put plainly: Annexin-V death assay of freshly isolated primary CLL cells. In kind it is cell-based, human. The settings on record: 48 hours. The method, then:
as §1
15 ml of blood in heparin treated tubes was obtained from each anonymous CLL patient and processed without freezing. Equal volume of media (RPMI medium, 10% […], supplemented with […] and 10 mg/ml transferrin) was mixed with each sample and CLL cells isolated by centrifugation through Ficoll-PAQUE Plus (Amersham). Cells were washed twice in media and cultured at a density of 2.0×10^6 cells/ml for up to 48 hours. Samples for FIG. 11A were obtained from 24 consecutive patients identified with WBC >50,000/μl. All guidelines and regulations were followed in accordance with IRB protocols #99-224 (Dana-Farber Cancer Institute). Normal PBMC's were obtained from tubing discarded following platelet donation by anonymous normal donors and processed as above, except cultured without insulin and transferrin.
Experimental replicates were performed using lysates or mitochondria from different CLL samples. In main body, where a P value is given, it was obtained by using a two-tailed Students t-test, and P<0.05 was considered statistically significant. GraphPad Prism software was used to determine EC50 values by non-linear dose-response curve fitting and to perform Mann-Whitney nonparametric testing in Table 5.
Freshly isolated primary CLL cells were incubated with ABT-737 or negative control enantiomer. After 48 hours, death was assessed using Annexin-V staining.

The test system of test [13] is H146 and H1963. The settings on record: in vitro and murine xenograft; cited from earlier work.

The pEC50 is the negative decadic logarithm of the EC50, by convention in mol/L.

SMILES strings stand for the structures. pEC50: −log10 of the molar value. Values joined by “and” are separate entries in the source; they are usually repeats but may differ in a detail not shown here. Equal entries are not always repeated. Where two headings read alike, the source gives them in different places.

As for `CN(C)CC[C@H](CSc1ccccc1)Nc1ccc(S(=O)(=O)NC(=O)c2ccc(N3CCN(Cc4ccccc4-c4ccc(Cl)cc4)CC3)cc2)cc1[N+](=O)[O-]` [ABT-737], the “cytochrome c release and BAX activation” value in test [1] (mitochondria from IL-3 starved cells) is “restored cytochrome c release and BAX activation”. The BAX oligomerization result in [1] (peptides 30 uM, ABT-737 10 uM, 35 minutes) is on record as “results in BAX oligomerization”. For the same molecule, the “amount of BIM bound to BCL-2” value in test [2] is “causes a dramatic reduction in the amount of BIM bound to BCL-2”. The cytochrome c release result in test [3] is “also induced cytochrome c release”. In addition, the “displacement of BIM from BCL-2 into the supernatant” value in [4] is “displaces BIM from BCL-2 into the supernatant”. Further, the “response of CLL cells after four hours” value in [5] is recorded as “responded similarly compared to 48-hour treatment”. Further, the “affinity to BCL-2” value in test [6] is recorded as “sub-nanomolar range”. Besides, the “affinity to BCL-w” value in test [7] is listed as “sub-nanomolar range”. For the same molecule, the “affinity to BCL-XL” value in test [8] is given as “sub-nanomolar range”. Besides, the “oligomerization of BAX” value in test [9] is “oligomerization of BAX within four hours”. The “effect on cell survival” value in test [10] (BCL-2-protected dexamethasone-treated 2B4 cells) is given as “very sensitive to ABT-737”; in [10] (MCL-1-protected dexamethasone-treated 2B4 cells), “has no effect”. The “cell sensitivity to the agent” value in test [11] is reported as “BH3 profiling accurately predicted response to ABT-737”. In addition, the pEC50 in test [12] (CLL cells of one patient per row (V1-V24), read-out: EC50 ABT-737) was 8.44 and 8.68 and 8.51 and 8.72 and 8.39 and 8.06 and 8.24 and 8.22 and 8.48 and 8.19 and 8.54 and 8.03 and 8.64 and 8.32 and 8.40 and 8.13 and 8.21 and 8.15 and 8.49 and 8.46; in test [12] (Homo sapiens, CLL cell, 48 h, twenty-four CLL samples, read-out: mean EC50, apoptosis of CLL cells), 8.35; in test [12] (Homo sapiens, CLL cell, 48 h, twenty-four CLL samples, read-out: range of EC50 over CLL samples), 8.03 to 8.72. In addition, in test [13], the “sensitivity of H146 and H1963 to treatment” value was “sensitive to treatment with ABT-737 in vitro and in an in vivo murine xenograft model”.
